These results are taken from US20120172392A1, “AMINE-BASED AND AMIDE-BASED INHIBITORS OF SEMICARBAZIDE-SENSITIVE AMINE OXIDASE (SSAO) ENZYME ACTIVITY AND VAP-1 MEDIATED ADHESION USEFUL FOR TREATMENT OF DISEASES” (priority 2004, published 2012).

For data set [1], the target named is T1, SSAO (Rattus norvegicus, UniProt O08590).
T1 construct: from tissue; host or cells: rat lung homogenate (1000 g supernatant)
T1 sequence (O08590 1-763): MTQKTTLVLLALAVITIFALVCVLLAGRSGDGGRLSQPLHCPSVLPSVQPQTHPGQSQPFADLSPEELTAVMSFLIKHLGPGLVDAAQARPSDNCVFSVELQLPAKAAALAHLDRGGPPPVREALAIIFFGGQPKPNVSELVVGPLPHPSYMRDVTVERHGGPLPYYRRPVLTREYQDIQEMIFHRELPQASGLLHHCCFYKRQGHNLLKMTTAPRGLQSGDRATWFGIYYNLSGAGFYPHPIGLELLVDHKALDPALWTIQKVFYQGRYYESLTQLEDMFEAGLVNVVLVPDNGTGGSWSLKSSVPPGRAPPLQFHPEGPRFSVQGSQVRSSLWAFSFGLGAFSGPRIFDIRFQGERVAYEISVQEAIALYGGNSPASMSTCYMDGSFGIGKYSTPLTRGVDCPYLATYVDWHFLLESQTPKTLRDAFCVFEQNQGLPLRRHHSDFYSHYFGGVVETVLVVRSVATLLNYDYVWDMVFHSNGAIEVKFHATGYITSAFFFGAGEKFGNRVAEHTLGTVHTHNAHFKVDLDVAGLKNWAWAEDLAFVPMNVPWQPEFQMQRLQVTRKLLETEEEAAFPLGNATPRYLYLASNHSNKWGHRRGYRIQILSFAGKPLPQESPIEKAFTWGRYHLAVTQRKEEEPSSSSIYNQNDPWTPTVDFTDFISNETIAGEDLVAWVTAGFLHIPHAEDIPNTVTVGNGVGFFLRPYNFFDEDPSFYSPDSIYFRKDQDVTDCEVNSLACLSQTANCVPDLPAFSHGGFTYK
The experiment in a line: In vitro inhibition of SSAO activity, radiolabeled benzylamine procedure (rat lung homogenate). It is filed as biochemical. The procedure: SSAO activity was also measured as described (Lizcano J M. Et al. (1998) Biochem J. 331:69). Briefly, rat lung homogenates were prepared by chopping the freshly removed tissue into small pieces and washing them thoroughly in PBS. The tissue was then homogenized 1:10 (w/v) in 10 mM potassium phosphate buffer (pH 7.8) and centrifuged at 1000 g at 4° C. for 10 minutes; the supernatant was kept frozen until ready to use. SSAO activity in 100 ul of lung homogenate was determined radiochemically using 20 uM ^14C-benzylamine as substrate. The reaction was carried out at 37° C. in a final volume of 300 ul of 50 mM potassium phosphate buffer (pH 7.2) and stopped with 100 ul of 2 M citric acid. Radioactively labeled products were extracted into; toluene/ethyl acetate (1:1, v/v) containing 0.6% (w/v) 2,5-diphenyloxdazole (PPO) before liquid scintillation counting.

A further data set deals with T2, human MAO-A (Homo sapiens, UniProt P21397).
T2 construct: purchased BD Biosciences (MA, USA)
T2 sequence (P21397 1-527): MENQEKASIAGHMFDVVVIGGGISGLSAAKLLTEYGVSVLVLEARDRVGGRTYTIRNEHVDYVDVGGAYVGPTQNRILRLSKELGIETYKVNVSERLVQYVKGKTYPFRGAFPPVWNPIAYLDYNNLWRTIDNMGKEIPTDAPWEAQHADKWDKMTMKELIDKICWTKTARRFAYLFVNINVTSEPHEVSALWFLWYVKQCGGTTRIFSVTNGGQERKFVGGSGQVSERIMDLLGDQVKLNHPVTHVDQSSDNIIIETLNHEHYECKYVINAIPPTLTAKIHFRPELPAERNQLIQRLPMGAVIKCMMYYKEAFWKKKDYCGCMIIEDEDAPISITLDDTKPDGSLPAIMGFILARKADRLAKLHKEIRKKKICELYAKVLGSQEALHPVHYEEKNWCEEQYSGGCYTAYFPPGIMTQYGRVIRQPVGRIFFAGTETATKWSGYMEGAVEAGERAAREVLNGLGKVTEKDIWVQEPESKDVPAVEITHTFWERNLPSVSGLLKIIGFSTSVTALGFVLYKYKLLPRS
Kind of data set: Inhibition of MAO-A activity, coupled colorimetric assay. It is filed as biochemical. To be noted: recombinant human MAO-A, tyramine substrate. The procedure: (§1) The specificity of the different SSAO inhibitors was tested by determining their ability to inhibit MAO-A and MAO-B activities in vitro. Recombinant human MAO-A and human MAO-B enzymes were obtained from BD Biosciences (MA, USA). MAO activities were measured in a similar way as for SSAO except that no pre-incubation with inhibitor or substrate was performed. A pre-determined amount of inhibitor diluted in 0.2 M potassium phosphate buffer, pH 7.6, was added to each well, if required. The amount of inhibitor varied in each assay but was generally at a final concentration of between 50 nM and 1 mM. Controls lacked inhibitor. The following agents were then added to a final reaction volume of 200 μl in 0.2 M potassium phosphate buffer, pH 7.6: 0.04 mg/ml of MAO-A or 0.07 mg/ml MAO-B enzyme, 15 μl of 10 mM tyramine substrate (for MAO-A), or 15 μl 100 mM benzylamine substrate (for MAO-B), and 50 μl of freshly made chromogenic solution (as above). The plates were incubated for 60 min at 37° C. The increase in absorbance, reflecting MAO activity, was measured at 490 nm using microplate spectrophotometer (Power Wave 40, Bio-Tek Inst.). Inhibition was determined as percent inhibition compared to control after correcting for background absorbance and IC50 values, and was calculated using. GraphPad Prism software. […]

Another data set concerns the target T3, human MAO-B (Homo sapiens, UniProt P27338).
T3 construct: purchased BD Biosciences (MA, USA)
T3 sequence (P27338 1-520): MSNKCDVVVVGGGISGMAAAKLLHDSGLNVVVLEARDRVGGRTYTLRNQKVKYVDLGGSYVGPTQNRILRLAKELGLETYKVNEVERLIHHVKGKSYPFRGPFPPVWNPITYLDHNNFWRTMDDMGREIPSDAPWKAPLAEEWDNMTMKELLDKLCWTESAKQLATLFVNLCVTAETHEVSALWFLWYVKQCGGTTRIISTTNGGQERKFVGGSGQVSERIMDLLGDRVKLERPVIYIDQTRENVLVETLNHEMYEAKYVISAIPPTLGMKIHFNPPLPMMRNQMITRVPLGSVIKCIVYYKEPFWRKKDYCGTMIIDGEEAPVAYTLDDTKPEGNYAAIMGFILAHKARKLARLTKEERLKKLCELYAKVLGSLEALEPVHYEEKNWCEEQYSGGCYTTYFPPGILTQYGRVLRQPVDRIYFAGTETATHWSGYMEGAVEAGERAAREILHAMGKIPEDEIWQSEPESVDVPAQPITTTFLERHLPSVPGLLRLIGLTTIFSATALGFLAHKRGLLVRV
Kind of data set: Inhibition of MAO-B activity, coupled colorimetric assay. The data set is classed as biochemical. The following applies: recombinant human MAO-B, benzylamine substrate. As to the method: as §1

The next data set relates to C57BL/6 mice. Kind of data set: Experimental autoimmune encephalomyelitis (EAE) in mice. To be noted: for EAE development after stopping treatment: after last treatment (d19-25). The data set is classed as in vivo. The procedure: Thirty female C57BL/6 mice were immunized subcutaneously (s,c) with myelin oligodendrocyte glycoprotein 35-55 (MOG peptide 35-55) in Complete Freund Adjuvant (CFA) on day 0, followed by i.p. injections of pertussis toxin (one pertussis toxin injection on day 0, a second pertussis toxin injection on day 2). Groups of 10 mice received either the allylamine Compound mofegiline (M1, 10 mg/kg/dose, twice daily for 18 consecutive days), methotrexate (MTX, 2.5 mg/kg/day, every other day (Mon., Weds., Fri.) till day 18) or vehicle control (twice/day for 18 consecutive days) all starting from one day after the immunization and all administered i.p. Then animals were monitored for body weight, signs of paralysis and death according to a 0-5 scale of scoring system as follows; 1=limp tail or waddling gait with tail tonicity; 2=waddling gait with limp tail (ataxia); 2.5=ataxia with partial limb paralysis; 3=full paralysis of one limb; 3.5=full paralysis of one limb with partial paralysis of second limb; 4=full paralysis of two limbs; 4.5=moribund; 5=death. Results are shown in FIG. 1A, FIG. 1B, and FIG. 1C. […] (p=0.04 by repeated measure analysis to assess the treatment effect. Proper polynomial transformation, with the spacing corresponding to the collection days, was applied to test the time effect). Statistically significant differences in diseases severity between the M1 and vehicle-treated groups, continued even after stopping compound administration and were observed until the end of the study (d25).

The target of data set [2] is T1, SSAO. The experiment in a line: In vitro inhibition of SSAO activity, radiolabeled benzylamine procedure (rat lung homogenate). It is filed as biochemical.
[3] abbreviates: Table II, compounds of formula III.
[4] abbreviates: Table I, compounds of formula X.

Counter-ions that a name gives are not always drawn.

Take `COc1ccc(CCCC(N)c2ccc(F)c(F)c2)cc1` (stereo not shown) [Example 3D, 1-(3,4-difluorophenyl)-4-(4-methoxyphenyl)-butylamine]: the melting point (usually the temperature, or range, at which the solid turns liquid) is 200 °C (dec.).

As for `COc1cccc(CCC2=CCNC2)c1` [compound 1368], the values for the IC50 against SSAO [1] (setting [3]), on human MAO-A and at human MAO-B were 0.5 µM, over 1000 µM and over 1000 µM, respectively.

For the molecule `Fc1ccc(OCC2=CCCNC2)cc1` [compound 1395], the inhibition (commonly how much of the control response was suppressed) at 10 µM at SSAO [1] (Table II) was 56%.

`Fc1ccc(CCC2=CCNC2)cc1` [compound 1402]: at SSAO [1] (setting [3]), half-maximal inhibition (IC50) was put at 1.83 µM.

As to `NC/C(=C/F)CCc1ccc(F)cc1` [mofegiline], the “EAE development after stopping treatment” value in the data set on C57BL/6 mice is “continuously observed for at least one more week after the last treatment”. Further, the “disease (clinical) severity, EAE development” value in the data set on C57BL/6 mice (dosing period d0-18, i.p., mofegiline 10 mg/kg/dose twice daily, MTX 2.5 mg/kg/day every other day) was “statistically significant reduction of disease seventy”. The “disease incidence (mice affected)” value in the data set with C57BL/6 mice (dosing period up to day 18, 10 mg/kg/dose i.p. twice daily) stood at 50%. In addition, in the data set on C57BL/6 mice (dosing period, 10 mg/kg/dose i.p. twice daily), the body weight entry was “prevented body weight loss”.

Turning to `Fc1cccc(CCC2=CCNC2)c1` [compound 1367], the IC50 (as a rule, the concentration that inhibits the measured activity by half) against SSAO [1] (setting [3]) worked out at 2.4 µM.

For the molecule `CN(Cc1cnc2nc(N)nc(N)c2n1)c1ccc(C(=O)N[C@@H](CCC(=O)O)C(=O)O)cc1` [MTX, methotrexate], in the data set with C57BL/6 mice, the “EAE development after stopping treatment” value is “a rise in disease incidence and severity was observed right after stopping the MTX treatment”.

The molecule `COc1ccc(CCC2=CCNC2)cc1OC` [compound 1427] returned an inhibition at 9 µM at SSAO [1] (Table II) of 50%.

`NCC(=O)NCc1cccnc1` [compound 1356] returned an IC50 on SSAO [1] (setting [4]) of 0.7 µM.

In turn, `NCC(=O)NCc1ccc(F)cc1` [compound 1334] came in with an IC50 at SSAO [1] (setting [4]) of 2.4 µM.

Molecule `COc1ccc(CCC2=CCNC2)cc1` [compound 1396] showed an IC50 against SSAO [1] (setting [3]) of 2.1 µM.

Regarding `COc1cccc(CCC2=CCNC2)c1.Cl` [LJP 1368, 3-[2-(3-methoxyphenyl)ethyl]-3-pyrroline hydrochloride], the “reversibility of inhibition of SSAO enzyme activity” value at SSAO [2] is “irreversible”.

Molecule `COc1cccc(OCC2=CCCNC2)c1` [compound 1401] had an inhibition at 10 µM against SSAO [1] (Table II) of 74%.

For `C#CC(N)CCCc1ccc(OC)cc1` (stereo not shown) (as salt: hydrochloride), the melting point is 175 °C (dec.).

`NCC(=O)NCc1cc(F)cc(C(F)(F)F)c1` (as salt: trifluoroacetate) [LJP 1383, 2-amino-N-(3-fluoro-5-trifluoromethylbenzyl)acetamide trifluoroacetate]: the melting point lay in the range of 189.5 to 190.5 °C.

For `COc1ccc(OCC2=CCCNC2)cc1OC` [compound 1397], 9 µM produced 54% inhibition on SSAO [1] (Table II).

Regarding `NC/C=C(/Cc1ccccc1)C(F)(F)F` [Example 3, 3-benzyl-4,4,4-trifluoro-but-2-enylamine], the melting point is 170 °C (dec.).

Take `C=CC(N)CCCc1ccccc1` (stereo not shown) [Example 3E, 1-(3-phenyl-propyl)-allylamine]: the melting point was 143 to 144 °C.

For `NCC(=O)NCc1ccc(F)cc1` (as salt: hydrochloride) [LJP 1334, 2-amino-N-(4-fluorobenzyl)acetamide], the melting point lay in the range of 114 to 115 °C.

With `COc1ccc(OCC2=CCCNC2)cc1` [compound 1404], 10 µM produced 63% inhibition against SSAO [1] (Table II).

As to `NCC(=O)NCc1cc(F)cc(C(F)(F)F)c1` [compound 1383], the melting point lay within 189.5 to 190 °C. Also, inhibition against SSAO [1] (setting [4]) was half-maximal at 0.033 µM (IC50). Further, the IC50 on human MAO-A is over 1300 µM. The IC50 on human MAO-B was over 1300 µM.

At SSAO [1] (Table II), `Fc1cccc(OCC2=CCCNC2)c1` [compound 1398] displayed an inhibition at 10 µM of 61%.

`NCC(=O)NCc1cccnc1` [LJP 1356, 2-amino-N-pyridin-3-ylmethylacetamide] came in with a melting point of 87 to 88 °C.
